Source: the NIST ThermoML archive (doi:10.1021/acs.jced.5b01043)
± gives the expanded uncertainty stated by the source.

Experiments:
[1] = refractive index (Na D-line) (dimensionless); wn = mass fraction of the nth substance listed; details: 100 kPa, Liquid, Standard Abbe refractometry
[2] = wn = mass fraction of the nth substance listed; details: 100 kPa, Liquid, Vibrating tube method

CCN(C=O)CC [N,N-diethylformamide] + [Cl-].[Na+]
Details | mass density, [2] [kg/m3] | refractive index, [1]
288.15 K, w2 = 0.0013 | 912.57 ± 0.26 | 1.43642 ± 0.00037
298.15 K, w2 = 0.0009 | 904.23 ± 0.25 | 1.43203 ± 0.00037
308.15 K, w2 = 0.0005 | 896.38 ± 0.24 | 1.42776 ± 0.00037

CCN(C=O)CC [N,N-diethylformamide] + [Cl-].[K+]
Details | mass density, [2] [kg/m3] | refractive index, [1]
288.15 K, w2 = 0.0015 | 911.47 ± 0.27 | 1.43618 ± 0.00037
298.15 K, w2 = 0.0009 | 903.51 ± 0.25 | 1.43281 ± 0.00037
308.15 K, w2 = 0.0005 | 896.68 ± 0.24 | 1.42872 ± 0.00037

CCN(C=O)CC [N,N-diethylformamide] + [Cl-].[Rb+]
Details | mass density, [2] [kg/m3] | refractive index, [1]
288.15 K, w2 = 0.0016 | 910.95 ± 0.28 | 1.43675 ± 0.00037
298.15 K, w2 = 0.0011 | 902.43 ± 0.25 | 1.43253 ± 0.00037
308.15 K, w2 = 0.0008 | 894.54 ± 0.25 | 1.42819 ± 0.00037

[Cl-].[Rb+] [rubidium chloride] + O
Details | mass density, [2] [kg/m3] | refractive index, [1]
288.15 K, w1 = 0.4652 | 1482.6 ± 0.87 | 1.38751 ± 0.00032
298.15 K, w1 = 0.4823 | 1495.24 ± 0.88 | 1.38769 ± 0.00032
308.15 K, w1 = 0.5033 | 1520.16 ± 0.9 | 1.38939 ± 0.00032

[Cl-].[Na+] [sodium chloride] + O
Details | mass density, [2] [kg/m3] | refractive index, [1]
288.15 K, w1 = 0.2631 | 1202.37 ± 0.69 | 1.381 ± 0.00032
298.15 K, w1 = 0.265 | 1197.1 ± 0.69 | 1.37938 ± 0.00031
308.15 K, w1 = 0.2666 | 1193.13 ± 0.69 | 1.37784 ± 0.00032

CCN(C=O)CC [N,N-diethylformamide] + O
298.15 K
Details | mass density, [2] [kg/m3] | refractive index, [1]
w1 = 0.009925 | 996.45 ± 0.11 | 1.33379 ± 0.00031
w1 = 0.04 | 995.04 ± 0.11 | 1.33758 ± 0.00031
w1 = 0.06998 | 993.7 ± 0.11 | 1.34136 ± 0.00032
w1 = 0.09919 | 992.49 ± 0.12 | 1.34512 ± 0.00032
w1 = 0.129 | 991.3 ± 0.12 | 1.34898 ± 0.00032
w1 = 0.16 | 989.97 ± 0.12 | 1.35302 ± 0.00032
w1 = 0.1897 | 988.8 ± 0.12 | 1.35684 ± 0.00032

[Cl-].[K+] [potassium chloride] + O
Details | mass density, [2] [kg/m3] | refractive index, [1]
288.15 K, w1 = 0.2483 | 1169.18 ± 0.67 | 1.36809 ± 0.00032
298.15 K, w1 = 0.2668 | 1174.11 ± 0.68 | 1.36838 ± 0.00032
308.15 K, w1 = 0.2768 | 1184.11 ± 0.68 | 1.36932 ± 0.00032

[Cl-].[Cs+] [cesium chloride] + O
288.15 K, w1 = 0.6406
Details | mass density [kg/m3] | refractive index
[1] | – | 1.41772 ± 0.00032
[2] | 1893.82 ± 1.2 | –

CCN(C=O)CC [N,N-diethylformamide] + [Cl-].[Cs+]
288.15 K, w2 = 0.0013
Details | mass density [kg/m3] | refractive index
[1] | – | 1.43686 ± 0.00037
[2] | 910.38 ± 0.26 | –
